Reference: patent publication US8420119B2, “Drug composition for treating tumor with polymeric micelle encapsulating anti-neoplastic” (Industrial Technology Research Institute, priority 2009, dated 2013)
≈ marks a conversion by molar mass, not a printed value.

Columns and labels:
[1] = Release test using dialysis bag; assay type: physicochemical; conditions: dialysis against PBS pH 7.4, 37° C.
Procedure: A 50 μL solution of a pharmaceutical composition, which was prepared according to the method as set forth above, was added into a dialysis bag having a molecular weight cutoff of about 3,500 Daltons, and then was dialyzed against a 50 ml phosphate buffered saline (PBS) (pH 7.4) at 37° C. After 1, 2, 4, and 8 hours of dialysis, 250 μL out-of-bag buffers were taken respectively, and then each was then mixed with 750 μL methanol (in 0.6N HCl). The quantity of each drug, which was released from the polymeric micelle and then dialyzed into the out-of-bag buffer, was determined by HPLC. A 50 μL CPT containing DMSO solution (CPT-DMSO) was used as a control.

[2] = Direct dilution test (remained lactone form); assay type: physicochemical; conditions: PBS pH 7.4, 37° C.
Procedure: A 150 μL solution of a pharmaceutical composition in accordance with the present disclosure, which was prepared according to the method as set forth above, was mixed with 1350 μL of PBS (pH 7.4), and then incubated at 37° C. After 1, 2, 4, and 8 hours of incubation, 10 μL incubated solutions were taken respectively, and each was mixed with 990 μL of methanol. The quantity of lactone form CPT or SN38 in the mixtures was determined by HPLC. A 150 μL CPT containing DMSO solution (CPT-DMSO) was used as a control.

[3] = In vivo kinetic test of CPT; design: species or system SD mice; conditions: SD, mouse, plasma
Procedure: The concentrations of lactone form CPT in bloods over the time were then determined by HPLC.
T1/2 (hr), AUCINF(hr*ng/ml), CL(mL/hr/kg), and Vss (mL/kg) in Table 2 represent half-life time, area under the curve to infinity, clearance, and volume of distribution at steady state, and the units thereof, respectively. The n represents sample number. These parameters can be measured and/or calculated according to the techniques known in the art.

[4] = tested on: Human colon cancer HT29 cells; assay: In vivo pharmaceutical efficiency comparison of CCP201 with free CPT11, HT29 tumor; design: species or system immunodeficiency mice
Procedure: (§1) Human colon cancer HT29 cells were implanted subcutaneously at the dorsal muscles of immunodeficiency mice. […] The administration frequency was twice a week and five times in total. The tumor size and weight of each mouse was monitored. The tumor size was measured and calculated according to the formula V=½ ab^2, wherein V is the volume of the tumor, a is the longest diameter of the tumor, and b is the shortest diameter of the tumor.

[5] = tested on: Human colon cancer HT29 cells; assay: In vivo pharmaceutical efficiency comparison of SCP201 with free CPT11, HT29 tumor; design: species or system immunodeficiency mice
Procedure: as §1, with “the formula V=1/2 ab^2, wherein” for “the formula V=½ ab^2, wherein”, “volume of tumor, a” for “volume of the tumor, a”, “the tumor. Human colon cancer Colo205 cells were also tested by the same method described above, except that the mice were divided into 6 groups.” for “the tumor.”

[6] = tested on: Human colon cancer Colo205 cells; assay: In vivo pharmaceutical efficiency comparison of SCP201 with free CPT11, Colo205 tumor; design: species or system immunodeficiency mice
Procedure: as §1, with “the formula V=1/2 ab^2, wherein” for “the formula V=½ ab^2, wherein”, “volume of tumor, a” for “volume of the tumor, a”, “the tumor. Human colon cancer Colo205 cells were also tested by the same method described above, except that the mice were divided into 6 groups.” for “the tumor.”

[7] = tested on: A549; assay: MTT assay A549; assay type: cell-based, human; conditions: Lung, A549, 72 hours
Procedure: (§2) Various human cancer lines, such as A549, AS2, and H460, were implanted onto multi-well plates and Dulbecco's Modified Eagle Media (high glucose) with 10% of fetal bovine serum and 1% of P/S being added to each well. […] Then a 20 μL of 0.5 mg/ml MTT (3-(4,5-dimethylthiazol-2-yl)-2,5-diphenyltetrazolium bromide) solution was added to each well to start the reaction. After 2 hours, the suspension of each well was removed and DMSO was added into the well to dissolve formazan, which was formed during the reaction. The living cell concentration was then obtained by analyzing the OD570 and OD600 data of each well.

[8] = tested on: AS2; assay: MTT assay AS2; assay type: cell-based, human; conditions: Lung, AS2, 72 hours
Procedure: as §2

[9] = tested on: H460; assay: MTT assay H460; assay type: cell-based, human; conditions: Lung, H460, 72 hours
Procedure: as §2

[10] = tested on: HT29; assay: MTT assay HT29; assay type: cell-based, human; conditions: Colorectal, HT29, 72 hours
Procedure: as §2

[11] = tested on: Colo 205; assay: MTT assay Colo 205; assay type: cell-based, human; conditions: Colorectal, Colo 205, 72 hours
Procedure: as §2

[12] = tested on: OVCAR-3; assay: MTT assay OVCAR-3; assay type: cell-based, human; conditions: Ovarian, OVCAR-3, 72 hours
Procedure: as §2

[13] = tested on: RPMI2650; assay: MTT assay RPMI2650; assay type: cell-based, human; conditions: Nasalseptum, RPMI2650, 72 hours
Procedure: as §2

[14] = tested on: SCC-25; assay: MTT assay SCC-25; assay type: cell-based, human; conditions: Tongue, SCC-25, 72 hours
Procedure: as §2

[15] = iv, lactone form CPT, 1 mg/kg vein injection
[16] = dose 10 mg/kg, total dose 50 mg/kg
[17] = dose 40 mg/kg, total dose 200 mg/kg

## CC[C@@]1(O)C(=O)OCc2c1cc1n(c2=O)Cc2cc3ccccc3nc2-1 [CPT-DMSO, camptothecin]
[1]; 1 hour
  percentage of released CPT/SN38: 48.2%
[1]; 2 hours
  percentage of released CPT/SN38: 73.9%
[1]; 4 hours
  percentage of released CPT/SN38: 87.2%
[2]; 2 hours
  percentage of remained lactone form CPT and SN38: 26.4%
[2]; 4 hours
  percentage of remained lactone form CPT and SN38: 18.1%
[3]; intravenous, 0.25 hour, 1 mg/kg CPT vein injection, read-out: lactone form CPT in plasma
  concentration at 0.25 h: 19.4 ng/mL
[3]; intravenous, 0.5 hour, 1 mg/kg CPT vein injection, read-out: lactone form CPT in plasma
  concentration at 0.5 h: 11.6 ng/mL
[3]; intravenous, 1 hour, 1 mg/kg CPT vein injection, read-out: lactone form CPT in plasma
  concentration at 1 h: 3.1 ng/mL
[3]; intravenous, 2 hours, 1 mg/kg CPT vein injection, read-out: lactone form CPT in plasma
  concentration at 2 h: 0.3 ng/mL
[3]; [15]
  AUC(0-inf): 16 ± 6 ng·h/mL
  clearance: 1160 mL/min/kg
  half-life: 15 ± 6 min
[3]; iv, lactone form CPT, 1 mg/kg vein injection, read-out: Vss
  Vd: 23.9 ± 6.2 L/kg

## CCc1c2c(nc3ccc(OC(=O)N4CCC(N5CCCCC5)CC4)cc13)-c1cc3c(c(=O)n1C2)COC(=O)[C@]3(O)CC [CPT11, 7-ethyl-10-[4-(1-piperidino)-1-piperidono]carbonyloxy camptothecin]
[4]; day 0, 10 mg/kg
  Tumor Size (mm^3) Vol.: 469.6 mm^3
[4]; day 4, 10 mg/kg
  Tumor Size (mm^3) Vol.: 745.8 mm^3
[4]; day 8, 10 mg/kg
  Tumor Size (mm^3) Vol.: 723.4 mm^3
[4]; day 11, 10 mg/kg
  Tumor Size (mm^3) Vol.: 740.8 mm^3
[4]; day 13, 10 mg/kg
  Tumor Size (mm^3) Vol.: 786.0 mm^3
[4]; day 15, 10 mg/kg
  Tumor Size (mm^3) Vol.: 757.5 mm^3
[4]; day 18, 10 mg/kg
  Tumor Size (mm^3) Vol.: 879.8 mm^3
[4]; day 20, 10 mg/kg
  Tumor Size (mm^3) Vol.: 902.7 mm^3
[4]; day 22, 10 mg/kg
  Tumor Size (mm^3) Vol.: 927.3 mm^3
[4]; day 27, 10 mg/kg
  Tumor Size (mm^3) Vol.: 1217.6 mm^3
[4]; [16]
  Maximum weight loss: 27 days
  Maximum weight loss %: 17.3%
  TIR % (day 21): 35%
[5]; day 0, 10 mg/kg
  Tumor Size (mm^3) Vol.: 142.8 mm^3
[5]; day 3, 10 mg/kg
  Tumor Size (mm^3) Vol.: 227.8 mm^3
[5]; day 6, 10 mg/kg
  Tumor Size (mm^3) Vol.: 292.7 mm^3
[5]; day 9, 10 mg/kg
  Tumor Size (mm^3) Vol.: 384.2 mm^3
[5]; day 12, 10 mg/kg
  Tumor Size (mm^3) Vol.: 492.0 mm^3
[5]; day 15, 10 mg/kg
  Tumor Size (mm^3) Vol.: 666.0 mm^3
[5]; day 18, 10 mg/kg
  Tumor Size (mm^3) Vol.: 853.5 mm^3
[5]; day 21, 10 mg/kg
  Tumor Size (mm^3) Vol.: 997.7 mm^3
[5]; day 24, 10 mg/kg
  Tumor Size (mm^3) Vol.: 1308.5 mm^3
[5]; day 27, 10 mg/kg
  Tumor Size (mm^3) Vol.: 1732.2 mm^3
[5]; [16]
  Maximum weight loss: 27 days
  Maximum weight loss %: 9.4%
  TIR % (day 21): 23%
[6]; day 0, 40 mg/kg
  Tumor Size (mm^3) Vol.: 152.1 mm^3
[6]; day 1, 10 mg/kg
  Tumor Size (mm^3) Vol.: 175.1 mm^3
[6]; day 1, 40 mg/kg
  Tumor Size (mm^3) Vol.: 184.6 mm^3
[6]; day 3, 10 mg/kg
  Tumor Size (mm^3) Vol.: 192.0 mm^3
[6]; day 3, 40 mg/kg
  Tumor Size (mm^3) Vol.: 239.3 mm^3
[6]; day 6, 10 mg/kg
  Tumor Size (mm^3) Vol.: 215.0 mm^3
[6]; day 6, 40 mg/kg
  Tumor Size (mm^3) Vol.: 215.0 mm^3
[6]; day 8, 10 mg/kg
  Tumor Size (mm^3) Vol.: 251.2 mm^3
[6]; day 8, 40 mg/kg
  Tumor Size (mm^3) Vol.: 184.7 mm^3
[6]; day 10, 10 mg/kg
  Tumor Size (mm^3) Vol.: 262.1 mm^3
[6]; day 10, 40 mg/kg
  Tumor Size (mm^3) Vol.: 161.7 mm^3
[6]; day 13, 10 mg/kg
  Tumor Size (mm^3) Vol.: 263.5 mm^3
[6]; day 13, 40 mg/kg
  Tumor Size (mm^3) Vol.: 110.2 mm^3
[6]; day 15, 10 mg/kg
  Tumor Size (mm^3) Vol.: 274.1 mm^3
[6]; day 15, 40 mg/kg
  Tumor Size (mm^3) Vol.: 70.9 mm^3
[6]; day 17, 10 mg/kg
  Tumor Size (mm^3) Vol.: 293.7 mm^3
[6]; day 17, 40 mg/kg
  Tumor Size (mm^3) Vol.: 59.1 mm^3
[6]; day 20, 10 mg/kg
  Tumor Size (mm^3) Vol.: 301.4 mm^3
[6]; day 20, 40 mg/kg
  Tumor Size (mm^3) Vol.: 37.8 mm^3
[6]; [16]
  Maximum weight loss %: 4.2%
  Maximum weight loss (day): (18) day
  TIR % (day 20): 61%
[6]; [17]
  Maximum weight loss %: 3.7%
  Maximum weight loss (day): (8) day
  TIR % (day 20): 95%
[7]
  IC50: 13.34 ± 1.33 mg/mL (≈ 22.7 mM)
[8]
  IC50: 4.20 ± 0.48 mg/mL (≈ 7.16 mM)
[9]
  IC50: 1.89 ± 0.14 mg/mL (≈ 3.22 mM)
[10]
  IC50: 1.90 mg/mL (≈ 3.24 mM)
[11]
  IC50: 6.84 ± 0.99 mg/mL (≈ 11.7 mM)
[12]
  IC50: 16.75 ± 1.43 mg/mL (≈ 28.6 mM)
[13]
  IC50: 1.47 ± 0.26 mg/mL (≈ 2.51 mM)
[14]
  IC50: 12.35 ± 1.16 mg/mL (≈ 21.1 mM)
